pEC50: −log10 of the molar value.
Target: Cystic fibrosis transmembrane conductance regulator (Homo sapiens, UniProt P13569, F508DEL)
Experiment: Modulation of CFTR F508 deletion mutant expressed in HBE cells assessed as change in short circuit current incubated for 18 to 24 hrs in presence of forskolin, amiloride and human serum by voltage-clamp based chamber assay
Type: cell-based

Sequence of Cystic fibrosis transmembrane conductance regulator (P13569 as listed by the source): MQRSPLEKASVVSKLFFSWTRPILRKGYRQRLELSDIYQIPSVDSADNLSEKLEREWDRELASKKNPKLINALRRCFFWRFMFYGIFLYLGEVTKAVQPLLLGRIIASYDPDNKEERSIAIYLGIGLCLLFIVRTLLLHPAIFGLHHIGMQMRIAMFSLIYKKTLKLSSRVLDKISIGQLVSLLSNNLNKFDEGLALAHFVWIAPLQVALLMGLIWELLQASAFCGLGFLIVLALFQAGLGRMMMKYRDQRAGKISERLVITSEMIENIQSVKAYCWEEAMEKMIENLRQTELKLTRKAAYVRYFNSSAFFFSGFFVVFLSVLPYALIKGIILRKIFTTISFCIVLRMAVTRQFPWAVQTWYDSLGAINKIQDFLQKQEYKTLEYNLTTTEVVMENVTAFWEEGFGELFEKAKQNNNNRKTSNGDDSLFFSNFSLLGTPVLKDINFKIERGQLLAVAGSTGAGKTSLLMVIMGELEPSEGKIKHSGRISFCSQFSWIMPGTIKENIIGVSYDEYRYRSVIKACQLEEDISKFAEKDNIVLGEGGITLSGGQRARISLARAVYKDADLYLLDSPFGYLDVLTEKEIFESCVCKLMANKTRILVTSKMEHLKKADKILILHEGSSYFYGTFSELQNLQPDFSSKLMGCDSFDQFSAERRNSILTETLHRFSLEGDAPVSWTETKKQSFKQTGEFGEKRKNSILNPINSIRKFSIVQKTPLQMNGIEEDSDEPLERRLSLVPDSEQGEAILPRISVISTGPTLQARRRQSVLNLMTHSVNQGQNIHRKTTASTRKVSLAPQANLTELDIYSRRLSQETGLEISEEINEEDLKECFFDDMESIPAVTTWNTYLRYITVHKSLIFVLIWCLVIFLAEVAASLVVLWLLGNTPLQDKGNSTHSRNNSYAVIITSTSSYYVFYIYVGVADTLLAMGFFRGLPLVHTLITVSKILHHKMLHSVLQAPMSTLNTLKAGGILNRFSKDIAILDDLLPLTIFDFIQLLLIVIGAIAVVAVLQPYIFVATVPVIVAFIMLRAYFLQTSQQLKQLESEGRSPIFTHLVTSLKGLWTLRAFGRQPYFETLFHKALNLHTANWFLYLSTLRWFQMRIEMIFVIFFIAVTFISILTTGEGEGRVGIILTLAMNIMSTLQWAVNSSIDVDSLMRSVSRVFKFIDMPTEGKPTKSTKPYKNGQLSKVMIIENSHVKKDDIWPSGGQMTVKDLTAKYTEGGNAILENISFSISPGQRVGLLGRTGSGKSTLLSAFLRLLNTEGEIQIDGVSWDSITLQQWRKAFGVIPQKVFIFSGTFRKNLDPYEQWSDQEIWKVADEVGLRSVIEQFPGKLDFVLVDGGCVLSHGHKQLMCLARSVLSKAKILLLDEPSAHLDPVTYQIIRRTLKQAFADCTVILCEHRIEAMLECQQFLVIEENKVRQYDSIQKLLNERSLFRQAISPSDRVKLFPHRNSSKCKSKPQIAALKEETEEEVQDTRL

| Structure (SMILES) | pEC50 |
| --- | --- |
| CC1(C)CCCC[C@](O)(C(F)(F)F)C2=NN=C(O2)c2nc(c(C(F)(F)F)cc2N)OC1 | > 6.30 |
| C[C@H]1CCCCC[C@](O)(C(F)(F)F)C2=NN=C(O2)c2nc(c(C(F)(F)F)cc2N)O1 | > 6.30 |
| [2H]C1CC[C@@H](C)Oc2nc(c(N)cc2C(F)(F)F)C2=NN=C(O2)[C@@](O)(C(F)(F)F)CC1[2H] (stereo partly specified) | > 6.30 |

Further lines, results first:

| pEC50 | Structure (SMILES) |
| --- | --- |
| > 6.30 | Nc1cc(C(F)(F)F)c2nc1-c1nnc(o1)C(O)(C(F)(F)F)CCCCCCO2 (stereo unspecified) |
| > 6.30 | Nc1cc(C(F)(F)F)c2nc1-c1nnc(o1)[C@@](O)(C(F)(F)F)CCCCC[C@H](CO)O2 |
| > 6.30 | Nc1cc(C(F)(F)F)c2nc1-c1nnc(o1)[C@@](O)(C(F)(F)F)CCCCCCS2 |
